Experimental findings from ChEMBL document CHEMBL1136131, “Synthesis of poly(ethylene glycol) with sulfadiazine and chlorambucil end groups and investigation of its antitumor activity” (Bioorg Med Chem Lett, 2003) are described below.

A short description of this data set: Acute toxicity in mice. As to conditions: mouse, in vivo.

As for `O=C(O)CCCc1ccc(N(CCCl)CCCl)cc1` [CHLORAMBUCIL], the LD50 came to 49.54 mg⁻¹ kg⁻¹.
